Consider four compounds from article PMC11790956, “A microscale thermophoresis-based enzymatic RNA methyltransferase assay enables the discovery of DNMT2 inhibitors” (Communications Chemistry, 2025).

Experiment [1] has as its target aptaSAH1&2 SAH split aptamer. Briefly: Split aptamer (aptaSAH1&2) MST ligand titration. The experiment is classed as binding, D. aromatica. The settings on record: for Kd: MST, aptaSAH1&2 each 50 nM. The protocol: (§1) To establish our experimental setup, we mixed both aptamer fragment oligonucleotides at equimolar concentrations (final: 50 nM) and titrated series of SAH resp. SAM dilutions to this prototypical SAH biosensor. […] Furthermore, MST assays require only 10 µL of sample volume per capillary compared to 30 µL per well in a 96-well plate supporting high-throughput applications in material consumption.
To evaluate the effect of inhibitors on DNMT2 activity, we used two known inhibitors, SHO108 and SH112. These SAH derivatives were selected based on their documented efficacy for DNMT2[8],[26].
For MTase assay detection by MST, enzyme reaction mixtures with a total volume of 10 µL per single treatment condition were prepared and incubated for the desired reaction times. Inhibitors were added from corresponding DMSO stocks to a final DMSO concentration of max. 5%. Afterward, reactions were quenched at a given reaction time by the addition of 1 µL sodium dodecyl sulfate (SDS, solution, 3% in water) per 10 µL reaction mixture and mixed well by pipetting. Subsequently, 1 µL of a 10× aptamer-containing detection master mix (200 mM Tris, pH 8.5, 200 mM MgCl2, 3 M NaCl, 10 mM urea, 0.2% Brij, 500 nM aptaSAH1, 500 nM aptaSAH2) was added to the quenched MTase reaction and incubated for 1 h at room temperature. Reaction mixtures were loaded directly to MST capillaries without further purification or sample processing.
MST experiments were carried out in at least technical triplicates using a Monolith NT.115 instrument (NanoTemper Technologies) using Monolith standard capillaries and the blue excitation laser setup. The instrument was calibrated according to the manufacturer’s instructions. General settings were applied for all MST experiments as follows: manual temperature control: 25 °C, fluorescence measurement before MST: 4 s, MST (IR laser) on: 20 s, fluorescence after MST: 2 s, delay: 25 s. The laser power was adjusted to optimize the signal-to-noise ratio and the fluorescence signal. LED and MST power settings were chosen individually for each sample by adjusting the LED power to yield fluorescence signals of at least 300 units (blue laser) or 3000 units (red laser) and the MST power to achieve an appropriate thermophoretic response (standard setting: medium MST power). MST measurements were analyzed using the NT analysis software (version 1.5.41) and exported for statistical analysis and plotting in GraphPad Prism 7.01.

The test system of experiment [2] is metH aptamer. Further details: method as in PMID 20864509. The following applies: cited from earlier work.
The target in experiment [3] is AptaFluor SAH aptamer. In words: Commercial AptaFluor SAH assay kit (HTRF) ligand titration. The experiment is classed as binding. The settings on record: read-out: affinity KD. The procedure: To assess the suitability for sensing SAH in a steady-state enzymatic assay, we examined statistical Z-values at 50 nM SAH (which correspond to 5% SAM-to-SAH substrate conversion from 1 µM SAM substrate in a common RNA MTase reaction). By this, we determined an MST-based Z-value of 0.84 (FRET assay: Z = 0.57) highlighting the suitability of this framework for high-throughput screening (HTS) assay setups (Fig. 1E). For these reasons, we prefer the usage of the MST-based assay which the following chapter will focus on, but it is noteworthy that plate reader-based FRET assays were also found equally functional. Furthermore, we performed comparative assays with the commercial AptaFluor assay kit, which gave similar results to our assay in all respects (SI Fig. 2): Z-factor at 50 nM SAH = 0.84; SAH resp.
(§2) Radiometric DNMT2 assays were carried out as described previously. HTRF MTase assays with the commercial AptaFluor SAH assay kit (BellBrook Labs) were performed as described in the manufacturer’s manual in 96-well format.
SI Figure 1 . Displacement of FTAD by literature-known inhibitors in a microscale thermophoresis displacement a s s a y. Data is given as mean ± SD of triplicates. (A) MST traces of SHO108. […]
SI Figure 2. […] (B) D o se -response curves of the AptaFluor assay in the presence of the SAH or SAM ligand by plate reader-ba s e d HT R F ass ays (λex=33 2 nm; λem=620/665 nm). […]
In general terms: In TR-FRET formats the signal depends on donor and acceptor labels being close together.

Experiment [4] addresses aptaSAH1&2 SAH split aptamer. In words: Split aptamer (aptaSAH1&2) plate reader-based FRET ligand titration. The experiment is classed as binding, D. aromatica. The settings on record: for Kd: FRET, aptaSAH1&2 each 50 nM, λex = 485 nm, λem = 600 nm, read-out: apparent KD.
Excerpt: In our study, we followed the aim of developing a fluorescent split aptamer SAH biosensor (Fig. 1A) from the natural non-split metH RNA aptamer. The concept of fluorescent split aptamers relies on a series of two or more independent fluorescently labeled aptamer oligonucleotides, able to assemble only in the presence of a specific target ligand. In a FRET-based approach, two fragments carry a FRET-pair of communicating fluorescent dyes, such that, upon excitation of the donor dye, the acceptor dye will only emit fluorescence if the dyes are in spatial proximity in the ligand-bound complex, thus indicating the presence of the analyte, i.e., SAH[23]. […] Accordingly, we evaluated two split aptamer fragments labeled with fluorescein (FAM) and tetramethylrhodamin (TAMRA) as a FRET-capable dye pair: aptaSAH1 and aptaSAH2 (Fig. 1B).
as §1
MTase reaction mixtures were prepared analogously to the MST-based detection approach but on a 30 µL scale (minimum volume for 96-well half-area plates). Reactions were quenched at a given time by 0.3% SDS and supplemented with 3 µL of the 10× aptamer-containing detection master mix. Reaction mixtures were transferred in technical triplicates to black Greiner 96-well half-area plate and incubated for 1 h at room temperature. Afterward, plates were measured using a Tecan Spark 10 M plate reader equipped with a monochromator setup (λex = 485 nm; λem = 600 nm). Statistical analysis and plotting were performed in GraphPad Prism 7.01.

The target in experiment [5] is T1, METTL3/14 (Homo sapiens, UniProt Q86U44).
T1 construct: purchased BPS Bioscience BPS-100105
Briefly: METTL3/14 enzymatic split aptamer MST assay. It is filed as biochemical. The following applies: 10 nM MTase, 120 nM RNA substrate, variable SAM; read-out: Michaelis-Menten constant KM.
Procedure: Specifically, we studied the m^6A MTase METTL3/14 and the m^7G MTase S. aureus TrmD.
For MTase assay detection by MST, enzyme reaction mixtures with a total volume of 10 µL per single treatment condition were prepared and incubated for the desired reaction times. Inhibitors were added from corresponding DMSO stocks to a final DMSO concentration of max. […] Afterward, reactions were quenched at a given reaction time by the addition of 1 µL sodium dodecyl sulfate (SDS, solution, 3% in water) per 10 µL reaction mixture and mixed well by pipetting. […]
MST experiments were carried out in at least technical triplicates using a Monolith NT.115 instrument (NanoTemper Technologies) using Monolith standard capillaries and the blue excitation laser setup. […] General settings were applied for all MST experiments as follows: manual temperature control: 25 °C, fluorescence measurement before MST: 4 s, MST (IR laser) on: 20 s, fluorescence after MST: 2 s, delay: 25 s. The laser power was adjusted to optimize the signal-to-noise ratio and the fluorescence signal. LED and MST power settings were chosen individually for each sample by adjusting the LED power to yield fluorescence signals of at least 300 units (blue laser) or 3000 units (red laser) and the MST power to achieve an appropriate thermophoretic response (standard setting: medium MST power). […]

For experiment [6], the target named is T2, DNMT2 (Homo sapiens, UniProt O14717).
T2 construct: made in house
T2 sequence (O14717 1-391): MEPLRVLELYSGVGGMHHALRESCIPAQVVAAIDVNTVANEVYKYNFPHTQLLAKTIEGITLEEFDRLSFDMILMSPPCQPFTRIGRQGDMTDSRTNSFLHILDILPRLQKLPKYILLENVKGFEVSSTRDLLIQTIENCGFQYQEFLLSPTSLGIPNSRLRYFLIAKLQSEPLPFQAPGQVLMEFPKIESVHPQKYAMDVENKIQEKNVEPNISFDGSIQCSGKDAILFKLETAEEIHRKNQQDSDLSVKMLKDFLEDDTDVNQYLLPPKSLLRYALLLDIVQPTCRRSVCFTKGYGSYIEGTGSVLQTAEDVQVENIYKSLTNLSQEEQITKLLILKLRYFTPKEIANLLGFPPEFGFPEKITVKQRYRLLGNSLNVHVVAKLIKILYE
Briefly: Fluorescent tracer displacement assay (FTAD-MST assay). It is filed as binding. The settings on record: MST FTAD tracer displacement; 2 µM DNMT2, 100 nM FTAD; read-out: KD. An excerpt:
(§3) To further validate our findings on DNMT2, we compared the split aptamer inhibition assay results of both inhibitors with those obtained from a previously published orthogonal assay method, the radiometric ^3H incorporation assay[8],[26]. […] Using an additional non-enzymatic MTase assay technique, we also investigated the two DNMT2 inhibitors utilizing an orthogonal MST method based on a fluorescent tracer displacement assay (SI Fig. 1)[27],[28].
Fluorescent tracer displacement MST assays for orthogonal ligand evaluation were conducted as described previously. The samples contained 2 µM DNMT2, 100 nM FTAD probe, and 1.3% DMSO in MST buffer (50 mM HEPES, 150 mM NaCl, 1 mM dithiothreitol (DTT), 0.1% PEG-8000, 0.05% polysorbate-20, pH 7.4) supplemented with variable concentrations of the screening compounds. All samples were measured in triplicates in Monolith standard capillaries at 25 °C. The acquisition mode was set to “Nano-Blue” with an excitation power of 30% and a medium MST power. MST measurements were analyzed using the NT analysis software (version 1.5.41) and exported for statistical analysis and plotting in GraphPad Prism 7.01.

Experiment [7] concerns the target T2, DNMT2. Briefly: DNMT2 radiometric 3H incorporation assay. The experiment is classed as biochemical. The following applies: orthogonal 3H-incorporation assay; read-out: IC50. The procedure:
as §3, §2

In experiment [8] the target is T2, DNMT2. Briefly: DNMT2 enzymatic split aptamer MST assay. The experiment is classed as biochemical. The following applies: MST-derived; 250 nM DNMT2, 5 µM tRNA, 0.9 µM SAM.
Procedure: The enzyme kinetics were characterized by calculating the Michaelis-Menten constant (KM or kcat) and inhibitory constants (IC50 resp. KI).
The final drug compound concentration was adjusted to 500 µM for the epigenetic drug library (Fig. 5) resp. 100 µM for the covalent compound library (Fig. 6), and the enzymatic reaction was incubated for 30 min at 25 °C. Subsequently, enzymatic reactions were terminated by the addition of 0.3% SDS, and the product SAH was quantified by the split aptamer MST assay (Figs. 5A, B, 6A).
Experiment [9] has as its target T3, S. aureus TrmD (Staphylococcus aureus, UniProt Q2FZ43).
T3 construct: made in house
T3 sequence (Q2FZ43 1-245): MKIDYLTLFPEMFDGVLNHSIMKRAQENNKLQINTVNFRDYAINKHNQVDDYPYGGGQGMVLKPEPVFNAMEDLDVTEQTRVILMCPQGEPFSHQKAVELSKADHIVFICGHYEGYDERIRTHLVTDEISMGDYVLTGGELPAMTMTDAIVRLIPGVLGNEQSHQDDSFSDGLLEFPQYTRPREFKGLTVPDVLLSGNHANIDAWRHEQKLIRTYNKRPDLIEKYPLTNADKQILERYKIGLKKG
Briefly: S. aureus TrmD enzymatic split aptamer MST assay. It is filed as biochemical.
Procedure: DNMT2 & S. aureus TrmD: 100 mM Tris-HCl, pH 8, 100 mM NH4OAc, 0.1 mM EDTA, 10 mM MgCl2, 10 mM DTT. For TrmD: 50 nM TrmD, 2 µM SAM, 1 µM tRNA^Leu.
For MTase assay detection by MST, enzyme reaction mixtures with a total volume of 10 µL per single treatment condition were prepared and incubated for the desired reaction times. Inhibitors were added from corresponding DMSO stocks to a final DMSO concentration of max. 5%. Afterward, reactions were quenched at a given reaction time by the addition of 1 µL sodium dodecyl sulfate (SDS, solution, 3% in water) per 10 µL reaction mixture and mixed well by pipetting. Subsequently, 1 µL of a 10× aptamer-containing detection master mix (200 mM Tris, pH 8.5, 200 mM MgCl2, 3 M NaCl, 10 mM urea, 0.2% Brij, 500 nM aptaSAH1, 500 nM aptaSAH2) was added to the quenched MTase reaction and incubated for 1 h at room temperature. […]
MST experiments were carried out in at least technical triplicates using a Monolith NT.115 instrument (NanoTemper Technologies) using Monolith standard capillaries and the blue excitation laser setup. […] General settings were applied for all MST experiments as follows: manual temperature control: 25 °C, fluorescence measurement before MST: 4 s, MST (IR laser) on: 20 s, fluorescence after MST: 2 s, delay: 25 s. The laser power was adjusted to optimize the signal-to-noise ratio and the fluorescence signal. […]

Experiment [10] concerns TrmD. The settings on record: read-out: reported IC50; cited from earlier work.

What is called Km is the concentration of substrate that gives half-maximal velocity. What is called IC50 is the concentration that inhibits the measured activity by half.

Entries after “also recorded” stand apart in the source; their conditions may differ.

T1 sequence (Q86U44 2-580 limits assumed): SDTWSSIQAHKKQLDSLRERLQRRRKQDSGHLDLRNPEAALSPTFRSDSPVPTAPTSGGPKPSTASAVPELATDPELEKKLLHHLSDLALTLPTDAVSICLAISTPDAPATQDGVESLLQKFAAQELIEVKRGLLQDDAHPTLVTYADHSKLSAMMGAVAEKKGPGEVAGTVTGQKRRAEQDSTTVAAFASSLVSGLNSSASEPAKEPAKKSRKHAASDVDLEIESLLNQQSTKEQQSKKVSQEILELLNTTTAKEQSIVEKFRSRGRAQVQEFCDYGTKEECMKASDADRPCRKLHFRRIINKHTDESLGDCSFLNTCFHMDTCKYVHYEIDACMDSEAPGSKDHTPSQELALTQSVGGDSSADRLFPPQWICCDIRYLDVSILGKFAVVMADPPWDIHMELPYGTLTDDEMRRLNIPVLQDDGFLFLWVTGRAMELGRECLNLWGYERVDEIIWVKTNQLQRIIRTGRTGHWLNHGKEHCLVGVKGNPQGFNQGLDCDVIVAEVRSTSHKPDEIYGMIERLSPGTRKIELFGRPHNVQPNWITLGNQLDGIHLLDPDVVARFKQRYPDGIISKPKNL
T1 sequence (Q9HCE5 2-456 partner limits assumed): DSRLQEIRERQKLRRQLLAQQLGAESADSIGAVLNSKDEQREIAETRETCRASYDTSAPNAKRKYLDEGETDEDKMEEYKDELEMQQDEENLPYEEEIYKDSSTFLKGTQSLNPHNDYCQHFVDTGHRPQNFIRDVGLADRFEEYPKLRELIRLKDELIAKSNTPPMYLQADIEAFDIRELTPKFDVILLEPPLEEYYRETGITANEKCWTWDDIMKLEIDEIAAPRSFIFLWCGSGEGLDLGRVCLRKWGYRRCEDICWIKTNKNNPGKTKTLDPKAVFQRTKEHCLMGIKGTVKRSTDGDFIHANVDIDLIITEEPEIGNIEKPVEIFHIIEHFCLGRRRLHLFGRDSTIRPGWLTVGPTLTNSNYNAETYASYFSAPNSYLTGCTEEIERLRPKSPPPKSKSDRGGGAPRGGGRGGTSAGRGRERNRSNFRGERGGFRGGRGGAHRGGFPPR

For `Nc1ncnc2c1ncn2[C@@H]1O[C@H](CSCC[C@H](N)C(=O)O)[C@@H](O)[C@H]1O` [SAH, S-adenosylhomocysteine], the Kd in [1] is 0.024 µM; in experiment [2] (isothermal titration calorimetry, read-out: apparent dissociation constant KD) it was roughly 0.02 µM; in [3], 0.026 µM; in [4] it was 0.018 µM. In addition, the “selectivity over other nucleosides (including SAM)” value in [2] is “at least 100 fold”. Further, the “SAH over SAM selectivity” value in [4] (from FRET apparent KD values) was 300 fold.

On to `C[S+](CC[C@H](N)C(=O)[O-])C[C@H]1O[C@@H](n2cnc3c(N)ncnc32)[C@H](O)[C@@H]1O` (stereo partly shown) [SAM, S-adenosylmethionine], for which the Michaelis-Menten constant (Km) in experiment [5] came out at 0.106 µM. Moreover, the Kd was 2.5 µM in [1], 5.7 µM in experiment [3] and 5.3 µM in [4].

As for `C#CCN(CC[C@H](N)C(=O)O)C[C@H]1O[C@@H](n2cnc3c(N)ncnc32)[C@H](O)[C@@H]1O` [SHO108, (S)-2-amino-4-((((2 R,3S,4 R,5 R)-5-(6-amino-9H-purin-9-yl)-3,4-dihydroxytetrahydrofuran-2-yl)methyl)(prop-2-yn-1-yl)amino)butanoic acid], the Kd in experiment [6] came to 4.7 µM. Besides, in [1] (inhibitor titrated up to 100 µM without enzyme or RNA substrate, compared to the SAH-positive control), the “binding to split aptamer (MST shift)” value was “not binding to the aptamer at relevant concentrations; also recorded: only minimal MST shifts”. The IC50 in [7] worked out at 9.3 ± 1.8 µM; in experiment [8], 7.9 ± 1.8 µM.

`O=c1nc[nH]c2scc(-c3ccccc3)c12` [phenylthieno-pyrimidinone, 5-phenylthieno[2,3-d]pyrimidin-4(1H)-one]: the half-maximal inhibitory concentration (IC50) in experiment [9] was 8.45 µM; in [10], 11 µM.
